The results in this text go back to patent US20160038474A1, “COMPOSITIONS AND METHODS FOR THE MODULATION OF HEMOGLOBIN (S)” (GLOBAL BLOOD THERAPEUTICS, INC., priority 2013, published 2016).

The bioavailability is dose-corrected exposure relative to a reference, in per cent. A higher bioavailability goes with much systemic uptake.

Data set [1] concerns the target T1, whole blood from homozygous sickle cell patients, Hb(S) (Homo sapiens, UniProt P68871+P69905, E7V).
T1 construct: Oxygen Equilibrium Curves (OEC) of whole blood before and after treatment; from tissue; host or cells: whole blood (or washed red blood cells) of homozygous sickle cell patients
As to the kind of experiment: Reverse Hemox assay (oxygen equilibrium curves), whole blood. The format is cell-based. The note with it: for Whole Blood OEC (delta p50%): [Hb] 1 mM; for Reverse Hemox delta p50% (class) / Reverse Hemox delta p50%: 1 mM compound, whole blood, hematocrit 20%; for Reverse Hemox delta p50%: 1 hour 37° C. As to the method: (§1) Oxygen Equilibrium Curves (OEC) of whole blood before and after treatment with different concentrations of compounds 12, 22 and 23 were performed as follows using a HEMOX analyzer (TCS Scientific, New Hope, Pa.). Blood samples from homozygous sickle cell patients were obtained though the Hemoglobinopathy Center at Children's Hospital Oakland Research Institute (CHORI) with Institutional Review Board approval. The hematocrit was adjusted to 20% using autologous plasma and the blood samples were incubated for 1 hour at 37° C. in absence or presence of compounds. 100 μl of these samples were added to 5 mL of Hemox butter (30 mM TES, 130 mM NaCl, 5 mM KCl, pH=7.4) at 37° C. and then transferred to the Hemox sample chamber. The samples were saturated with oxygen by flushing with compressed air for 10 minutes. The samples were then flushed with pure nitrogen and the respective absorbances of oxy- and deoxy-Hb are recorded as a function of the solution pO2. The oxygen equilibrium data were then fitted to the Hill Model to obtain values for p50. The deoxygenation curves for both whole blood alone (control) and whole blood in the presence of the compound were collected with the TCS software.
Results: Table 3 below lists the delta p50% values where “+” indicates a delta p50% of between 0 and 29, “++” indicates a delta p50% of between 30 and 50, and “+++” indicates a delta p50% of 50 or greater.
(§2) Reverse hemox assay was performed essentially as described in Example 2, above, using either washed red blood cells or whole blood.

A further data set has as its system washed red blood cells. As to the kind of experiment: Reverse Hemox assay (OEC), washed red blood cells. The format is cell-based, human. The following applies: washed RBCs; 1 mM compound; control 30 mm Hg. How it is done:
as §1, §2
Results: Table 4, below, indicates the percent change in p50 (delta p50%) for each compound tested. In the washed red blood cells (RBCs), 5-HMF, compound 5, and compound 12 (1 mM compound) gave p50 of 20, 9 and 7 mm Hg, respectively, compared to the control red blood cells (delta p50=30 mm Hg). To determine the effects of plasma proteins on compound activity. OECs were measured in whole blood from sickle cell disease patients. 5-HMF, compound 5, compound 9, and compound 12 gave p50 of 27, 18, 11 and 6 mm Hg, respectively, compared to the control blood p50 of 30 mm Hg.

In data set [2] the target is T2, HbS (Homo sapiens, UniProt P68871+P69905, E7V). As to the kind of experiment: 96-well oxygen dissociation assay (ODA). Format: biochemical. An excerpt:
Results: Table 4 below lists the change in oxygen affinity (Δoxy state). After two hours of passive deoxygenation, compound 12, at an equimolar concentration to Hb, increased the Hb oxygen affinity by 6-fold.

The test system of data set [3] is sickle cell disease patient whole blood (ssRBCs). Put plainly: Viscosity assay, hypoxic sickle cell blood. The format is cell-based, human. The following applies: [Hb] 1.5 mM; [cmp] 8 mM; two hours of hypoxia. As to the method:
Sickle cell disease patients develop anemia as a means for the circulatory system to compensate for increase in blood viscosity caused by the non-deformable sickle cell red blood cells (ssRBCs). The effects of 5-HMF, compound 5, compound 9, or compound 12 were tested on sickle cell disease patient blood rheology to determine if these compounds decrease the viscosity of ssRBCs that have undergone hypoxia. Using blood from patients with sickle cell disease, whole blood (30% hematocrit, ˜1.5 mM Hb) was incubated with 5-HMF, compound 5, compound 9, or compound 12 during exposure to two hours of hypoxia (2.4% 02). A cone-plate viscometer was used to measure the viscosity at shear rates ranging from 60 s^−1 to 415 s^−1.

For data set [4], the target named is T2, HbS. Put plainly: 96-well oxygen dissociation assay (ODA). Format: biochemical. The following applies: [Hb] 3 μM; [cmp] 1 μM.
Data set [5] in a line: Rat pharmacokinetics and blood/plasma partitioning (Example 1). The format is in vivo, Rats (Sprague-Dawley). The following applies: for level of compound in blood versus plasma, overall exposure / relative proportion in blood (as compared to plasma) at peak concentration (Cmax): dosed orally; for Vd / bioavailability / clearance / blood plasma ratio: male, Sprague-Dawley; for Vd / bioavailability: in vivo; for Vd / clearance: oral 10 mg/kg or intravenous 1 mg/kg; for Vd: read-out: Vss; for bioavailability: oral 10 mg/kg, intravenous 1 mg/kg; for clearance: plasma; for blood plasma ratio: whole blood and plasma, oral, 10 mg/kg. How it is done: This experiment was established and used in order to assess the pharmacokinetic (PK) properties of the compounds.
Sample collection and data analysis: Rats (Sprague-Dawley, male, 8-12[…] weeks old) were dosed with one of three compounds corresponding to compound 12, compound 22 or compound 23. The rats received oral (10 mg/kg) or intravenous (1 mg/kg) doses of the compound. Rats were fasted overnight before the experiments and provided with food after the 2 hour sampling time point.
Blood samples were collected at different time points. Blood was anti-coagulated by 3.2% TSC (trisodium citrate) and a portion was separated into plasma fraction by centrifugation and removal of blood cells. Plasma and lysed blood samples were anal) zed for drug concentration using LC-MS/MS. PK parameters were calculated by non compartmental analysis of the concentration-time profiles using WinNonLin software (Pharsight, Mountain View, Calif.). Apparent elimination half-life (t1/2) values were calculated as ln(2)/k. Area under the concentration-time curve (AUC) values were estimated using the linear trapezoidal method. AUClast values were calculated from the dosing time to the last measurable concentration. AUCinf values were calculated as the sum of the corresponding AUClast and the ratio of the last detectable concentration divided by k. Plasma clearance (Cl) is calculated from Dose/AUCinf. Volume of distribution at steady state (Vss) is calculated from Mean Residence Timeinf×Clss. Maximum concentration (Cmax) and time to Cmax (Tmax) was recorded as observed. The blood/plasma partitioning ratio was calculated at each experimental time point.

Another data set has as its target T3, HbS/A (Homo sapiens, UniProt P68871+P69905, E7V).
T3 construct: A mixture of HbS/A was purified from blood obtained from homozygous sickle cell patients; from tissue; host or cells: blood of homozygous sickle cell patients
Put plainly: R/T assay (relaxed-to-tense transition). The format is biochemical. The following applies: HbS/A 3 μM. As to the method: This ability can be expressed as a “delta R” value (i.e., the change in the time-period of the R state after hemoglobin is treated with a compound, as compared to the period without treatment with the compound). Delta R is the % R to remaining after the compounds treatment compared with no treatment (e.g., if R % without treatment is 8% while with treatment with a target compound is 48% R at 30 μM, then % R is 40% for that compound.
A mixture of HbS/A was purified from blood obtained from homozygous sickle cell patients though the Hemoglobinopathy Center at Children's Hospital Oakland Research Institute (CHORI) with Institutional Review Board approval. HbS/A (at a final concentration of 3 μM) was incubated for 1 hr at 37° C. in presence or absence of compounds in […] potassium phosphate buffer, pH=7.4 and 30 μM 2,3 diphosphoglycerate (DPG) in 96 well plates in a final volume of 160 μl. Compounds were added at different concentrations (3 μM to 100 μM final concentrations). Plates were covered with a Mylar film. After incubation was completed the Mylar cover was removed and the plates were placed in a Spectrostar Nano plate reader previously heated at 37° C. Five minutes later, N2 (flow rate=20 L/min) was flowed through the spectrophotometer. Spectroscopic measurements (300 nm to 700 nm) were taken every 5 min for 2 hours. Data analysis was performed by using linear regression from the data retrieved for all wavelengths.

For a further data set, the target named is T4, purified HbS (Homo sapiens, UniProt P68871+P69905, E7V).
T4 construct: HbS is purified by the CRO VIRUSYS, from blood obtained from homozygous sickle cell patients; tissue VIRUSYS (CRO that did the purification); host or cells: blood of homozygous sickle cell patients
Put plainly: HbS polymerization assay. The format is biochemical. The following applies: 75 μM compound; 50 μM HbS. As to the method:
Polymerization assays are carried out in vitro using purified HbS exchanged into 1.8 M potassium phosphate buffer at pH 7.4. Using a slightly modified protocol (Antonini and Brunori, 1971). HbS is purified by the CRO VIRUSYS, from blood obtained from homozygous sickle cell patients through the Hemoglobinopathy Center at Children's Hospital Oakland Research Institute (CHORI) with Institutional Review Board approval. Compounds are prepared in 100% DMSO and a desired amount is added to 50 μM of purified HbS at a final DMSO concentration of 0.3%. Final potassium phosphate concentration is adjusted to 1.8 M using a combination of 2.5 M potassium phosphate stock solution and water at pH 7.4. The reaction mixture is incubated for an hour at 37° C. and then transferred into a 24-well plate for deoxygenation in a glove box containing 99.5% nitrogen and 0.5% oxygen. The 24-well plate is not covered and incubated at 4° C. on a plate cooler inside the glove box for one and a half hours. Fifty μl of the reaction mixture is transferred into a 96-well plate and the absorbance at 700 nm is measured every minute for one hour at 37° C. in a plate reader located inside the glove box. A plot of the absorbance against time is fitted using a Boltzman sigmoidal fit and the delay time (from zero to time at half Vmax) is measured. To compare and rank compounds, delay times are expressed as percent delay (% DT), which is defined as the difference in delay times for HbS/compound and HbS alone multiplied by 100 and divided by the delay time for HbS alone.
The ability of 5-HMF and compound 12 to delay HbS polymerization was evaluated as described in Example 2, above. Purified HbS (50 μM) was pre-incubated with 25 μM, 50 μM, or 100 μM of 5-HMF or compound 12, then passively de-oxygenated at 4° C. in 1.8 M potassium phosphate. Polymerization was induced via temperature jump from 4° C. to 37° C. Polymerization was quantified based on turbidity of the HbS solution under continued hypoxia.

[6] abbreviates: read-out: Blood/plasma (Ratio of exposure AUCINF).
[7] abbreviates: read-out: Blood/plasma (Ratio of peak concentration).

Read-outs that look alike come from different tables or passages of the source.

Regarding `COc1cc(C=O)c(OCc2cccnc2-c2[nH]ncc2C)cn1` [Compound 5, 2-methoxy-5-[[2-(4-methyl-1H-pyrazol-5-yl)pyridin-3-yl]methoxy]pyridine-4-carbaldehyde], the results for the “Whole Blood OEC (delta p50%)” value in data set [1] ([cmp] 1 mM) and in data set [1] ([cmp] 3 mM) were 49% and 71%, respectively. The p50 in data set [1] (whole blood from sickle cell disease patients, control blood p50 30 mm Hg) is listed as 18 mm Hg; with washed red blood cells it was 9 mm Hg. Besides, the “potency at increasing the oxygen affinity of HbS compared with 5-HMF” value on HbS [2] (96-well ODA) is “more potent at increasing the oxygen affinity of HbS than 5-hydroxy furfural”. In addition, the “Hb in ODA (Δoxy state)” value at HbS [2] ([Hb] 3 μM, [cmp] 3 μM) turned out to be 10; on HbS [4] it was 2. For the same molecule, in data set [3], the “Viscosity (ΔcP)” value was greater than 2.4 cP.
Turning to `COc1cc(C=O)c(OCc2cccnc2-c2ccnn2CC(F)F)cn1` [Compound 22, 5-[[2-[2-(2,2-difluoroethyl)pyrazol-3-yl]pyridin-3-yl]methoxy]-2-methoxypyridine-4-carbaldehyde], in data set [5], the “level of compound in blood versus plasma, overall exposure” value worked out at 5 fold; the “relative proportion in blood (as compared to plasma) at peak concentration (Cmax)” value turned out to be 5 fold; the Vd was 3.1 L/kg; the bioavailability is 6.6%. Besides, the clearance in data set [5] is 9 mL/min/kg. Moreover, the blood plasma ratio in data set [5] (setting [6]) is 33. Moreover, in data set [5] (setting [7]), the blood plasma ratio was 5. Further, in data set [1], the “Reverse Hemox delta p50% (class)” value is listed as “+++ (a delta p50% of 50 or greater)” and the “Reverse Hemox delta p50%” value came to 68.69%. Moreover, on HbS/A (9 μM compound), the “R-T delta R” value turned out to be 31.02; the “R-T delta R (class)” value is “++ (a delta R of between 30 and 50)”. Besides, at HbS/A (10 μM compound), the “R-T delta R” value was 36.25; the “R-T delta R (class)” value was “++ (a delta R of between 30 and 50)”. Moreover, on purified HbS, the “Polymerization % DT (class)” value is “†† (activity >80% but ≦120%)” and the “Polymerization % DT (percent delay)” value is 90.22%.
Take `COc1cc(C=O)c(OCc2cccnc2-c2ccccc2C)cn1` [Compound 23, 2-methoxy-5-[[2-(2-methylphenyl)pyridin-3-yl]methoxy] pyridine-4-carbaldehyde]: in data set [5], the “level of compound in blood versus plasma, overall exposure” value came to 1 fold; the “relative proportion in blood (as compared to plasma) at peak concentration (Cmax)” value is given as 3 fold; the Vd was determined as 3.15 L/kg; the bioavailability was found to be 1.8%. This molecule also registered a clearance in data set [5] of 13.7 mL/min/kg. The blood plasma ratio in data set [5] (setting [6]) was found to be 4. Also, in data set [5] (setting [7]), the blood plasma ratio worked out at 1. In addition, in data set [1], the “Reverse Hemox delta p50% (class)” value is listed as “+++ (a delta p50% of 50 or greater)” and the “Reverse Hemox delta p50%” value came to 72.45%. In addition, on HbS/A (9 μM compound), the “R-T delta R” value came to 37.15; the “R-T delta R (class)” value is “++ (a delta R of between 30 and 50)”. Besides, at HbS/A (10 μM compound), the “R-T delta R” value was 51.55 and the “R-T delta R (class)” value is “+++ (a delta R of 50 or greater)”. Also, at purified HbS, the “Polymerization % DT (class)” value is listed as “†† (activity >80% but ≦120%)” and the “Polymerization % DT (percent delay)” value came to 98.19%.
